System: MV-4-11 cells
Experiment: Gene expression microarray analysis (Affymetrix PrimeView) and GSEA
Format: cell-based, human
Design: RFU PODN (11730768_x_at) / Fold change /veh PODN (11730768_x_at) / RFU LINC00158 (11744669_a_at) / Fold change /veh LINC00158 (11744669_a_at) / RFU DUSP10 (11751237_a_at) / Fold change /veh DUSP10 (11751237_a_at) / RFU ID3 (11757404_x_at) / Fold change /veh ID3 (11757404_x_at) / RFU PLEKHG5 (11737974_s_at) / Fold change /veh PLEKHG5 (11737974_s_at) / RFU LRRC4B (11730491_at) / Fold change /veh LRRC4B (11730491_at) / RFU GIMAP4 (11747438_a_at) / Fold change /veh GIMAP4 (11747438_a_at) / RFU KRT8 (11758183_x_at) / Fold change /veh KRT8 (11758183_x_at) / RFU CNN1 (11734310_a_at) / Fold change /veh CNN1 (11734310_a_at) / RFU VPS37D (11726825_at) / Fold change /veh VPS37D (11726825_at) / RFU C10orf10 (11716522_x_at) / Fold change /veh C10orf10 (11716522_x_at) / RFU KIR2DL2 /// KIR2DL4 /// KIR2DL5A /// KIR2DL5B /// KIR2DS1 /// KIR2DS2 /// KIR2DS3 /// KIR2DS4 /// KIR3DL3 /// KIR3DL3 /// KIR3DS1 (11738374_at) / Fold change /veh KIR2DL2 /// KIR2DL4 /// KIR2DL5A /// KIR2DL5B /// KIR2DS1 /// KIR2DS2 /// KIR2DS3 /// KIR2DS4 /// KIR3DL3 /// KIR3DL3 /// KIR3DS1 (11738374_at) / RFU C1QL1 (11718748_at) / Fold change /veh C1QL1 (11718748_at) / RFU TMPRSS4 (11747572_a_at) / Fold change /veh TMPRSS4 (11747572_a_at) / RFU HAMP (11756126_x_at) / Fold change /veh HAMP (11756126_x_at) / RFU RNFT2 (11725882_a_at) / Fold change /veh RNFT2 (11725882_a_at) / RFU NR4A2 (11747474_a_at) / Fold change /veh NR4A2 (11747474_a_at) / RFU ABCC12 (11746883_a_at) / Fold change /veh ABCC12 (11746883_a_at) / RFU TMEM136 (11760407_x_at) / Fold change /veh TMEM136 (11760407_x_at) / RFU CLDN22 /// WWC2 (11732394_at) / Fold change /veh CLDN22 /// WWC2 (11732394_at) / RFU HLA-DPB1 (11760878_x_at) / Fold change /veh HLA-DPB1 (11760878_x_at) / RFU SPINT1 (11716480_a_at) / Fold change /veh SPINT1 (11716480_a_at) / RFU GAP43 (11754022_s_at) / Fold change /veh GAP43 (11754022_s_at) / RFU A4GNT (11735810_at) / Fold change /veh A4GNT (11735810_at) / RFU PRB3 (11715151_x_at) / Fold change /veh PRB3 (11715151_x_at) / RFU TUBB4B (11761932_at) / Fold change /veh TUBB4B (11761932_at) / RFU CAPN14 (11732068_a_at) / Fold change /veh CAPN14 (11732068_a_at) / RFU TMCC2 (11721928_a_at) / Fold change /veh TMCC2 (11721928_a_at) / RFU IRGQ (11745062_a_at) / Fold change /veh IRGQ (11745062_a_at) / RFU FAM174B (11720279_a_at) / Fold change /veh FAM174B (11720279_a_at) / RFU TMPRSS4 (11748680_a_at) / Fold change /veh TMPRSS4 (11748680_a_at) / RFU FAM212B (11763350_a_at) / Fold change /veh FAM212B (11763350_a_at) / RFU PLEKHG5 (11743358_a_at) / Fold change /veh PLEKHG5 (11743358_a_at) / RFU ZSCAN30 (11745921_a_at) / Fold change /veh ZSCAN30 (11745921_a_at) / RFU CMKLR1 (11741424_a_at) / Fold change /veh CMKLR1 (11741424_a_at) / RFU LOC101060620 /// MAPK8IP1 (11723275_at) / Fold change /veh LOC101060620 /// MAPK8IP1 (11723275_at) / RFU SPTSSB (11747773_x_at) / Fold change /veh SPTSSB (11747773_x_at) / RFU PRSS12 (11739890_at) / Fold change /veh PRSS12 (11739890_at) / RFU BIN1 (11741810_x_at) / Fold change /veh BIN1 (11741810_x_at) / RFU WNT11 (11732464_a_at) / Fold change /veh WNT11 (11732464_a_at) / RFU C10orf10 (11716521_a_at) / Fold change /veh C10orf10 (11716521_a_at) / RFU C5orf56 (11738089_at) / Fold change /veh C5orf56 (11738089_at) / RFU CYB561 (11721691_x_at) / Fold change /veh CYB561 (11721691_x_at) / RFU ANKRD19P (11752326_a_at) / Fold change /veh ANKRD19P (11752326_a_at) / RFU OR2T12 /// OR2T33 /// OR2T8 (11738714_s_at) / Fold change /veh OR2T12 /// OR2T33 /// OR2T8 (11738714_s_at) / RFU VCAN (11748164_a_at) / Fold change /veh VCAN (11748164_a_at) / RFU JSRP1 (11732532_at) / Fold change /veh JSRP1 (11732532_at) / RFU KRTAP10-11 (11738290_x_at) / Fold change /veh KRTAP10-11 (11738290_x_at) / RFU MYO3A (11730013_a_at) / Fold change /veh MYO3A (11730013_a_at) / RFU EBF3 (11725865_a_at) / Fold change /veh EBF3 (11725865_a_at) / RFU CAMK2N1 (11719241_x_at) / Fold change /veh CAMK2N1 (11719241_x_at) / RFU C5orf56 (11738088_a_at) / Fold change /veh C5orf56 (11738088_a_at) / RFU OLFML3 (11715873_a_at) / Fold change /veh OLFML3 (11715873_a_at) / RFU LOC100653217 /// NTM (11731650_a_at) / Fold change /veh LOC100653217 /// NTM (11731650_a_at) / RFU MAPK11 (11762145_a_at) / Fold change /veh MAPK11 (11762145_a_at) / RFU FIZ1 (11724087_x_at) / Fold change /veh FIZ1 (11724087_x_at) / RFU OASL (11726364_x_at) / Fold change /veh OASL (11726364_x_at) / RFU SOX15 (11748057_x_at) / Fold change /veh SOX15 (11748057_x_at) / RFU CD79A (11719716_a_at) / Fold change /veh CD79A (11719716_a_at) / RFU HIST1H1D (11736915_at) / Fold change /veh HIST1H1D (11736915_at) / RFU CASKIN2 (11723855_a_at) / Fold change /veh CASKIN2 (11723855_a_at) / RFU LOC730098 (11760151_x_at) / Fold change /veh LOC730098 (11760151_x_at) / RFU OR4N2 (11742367_at) / Fold change /veh OR4N2 (11742367_at) / RFU PRRT2 (11749266_a_at) / Fold change /veh PRRT2 (11749266_a_at) / RFU SNX32 (11753110_a_at) / Fold change /veh SNX32 (11753110_a_at) / RFU CDHR5 (11726645_a_at) / Fold change /veh CDHR5 (11726645_a_at) / RFU RCAN1 (11760418_a_at) / Fold change /veh RCAN1 (11760418_a_at) / RFU FAM167A (11723789_a_at) / Fold change /veh FAM167A (11723789_a_at) / RFU FAM26E (11764081_at) / Fold change /veh FAM26E (11764081_at) / RFU ISYNA1 (11749810_s_at) / Fold change /veh ISYNA1 (11749810_s_at) / RFU ACY1 (11761880_at) / Fold change /veh ACY1 (11761880_at) / RFU 11764098_at / Fold change /veh 11764098_at / RFU SAMD14 (11745864_x_at) / Fold change /veh SAMD14 (11745864_x_at) / RFU NPB (11741838_a_at) / Fold change /veh NPB (11741838_a_at) / RFU TMPRSS6 (11731388_a_at) / Fold change /veh TMPRSS6 (11731388_a_at) / RFU KRTAP10-2 (11738614_at) / Fold change /veh KRTAP10-2 (11738614_at) / RFU ARHGAP8 /// PRR5-ARHGAP8 (11727945_x_at) / Fold change /veh ARHGAP8 /// PRR5-ARHGAP8 (11727945_x_at) / RFU KRTAP5-7 /// NADSYN1 (11734609_at) / Fold change /veh KRTAP5-7 /// NADSYN1 (11734609_at) / RFU RASL12 (11751679_a_at) / Fold change /veh RASL12 (11751679_a_at) / RFU CDKN2B (11736163_a_at) / Fold change /veh CDKN2B (11736163_a_at) / RFU PRF1 (11729649_at) / Fold change /veh PRF1 (11729649_at) / RFU, ZNF638 /// ZNF638-IT1 / Fold change vs veh, ZNF638 /// ZNF638-IT1 / RFU, PANK3 / Fold change vs veh, PANK3 / RFU, SH3YL1 / Fold change vs veh, SH3YL1 / RFU, ZEB2 / Fold change vs veh, ZEB2 / RFU, NRIP1 / Fold change vs veh, NRIP1 / RFU, PTTG1IP / Fold change vs veh, PTTG1IP / RFU, CAPN2 / Fold change vs veh, CAPN2 / RFU, MED14 / Fold change vs veh, MED14 / RFU, SNORA58 / Fold change vs veh, SNORA58 / RFU, C1orf63 / Fold change vs veh, C1orf63 / RFU, LRRFIP1 / Fold change vs veh, LRRFIP1 / RFU, NDUFAF7 / Fold change vs veh, NDUFAF7 / RFU, SLC12A2 / Fold change vs veh, SLC12A2 / RFU, IBTK / Fold change vs veh, IBTK / RFU, ESF1 / Fold change vs veh, ESF1 / Fold change vs veh, TMEM50B / RFU, TAOK1 / Fold change vs veh, TAOK1 / RFU, ACBD3 / Fold change vs veh, ACBD3 / RFU, TMA16 / Fold change vs veh, TMA16 / RFU, RWDD3 / Fold change vs veh, RWDD3 / RFU, BCAT1 / Fold change vs veh, BCAT1 / RFU, EDEM3 / Fold change vs veh, EDEM3 / RFU, TMEM33 / Fold change vs veh, TMEM33 / RFU, WDR75 / Fold change vs veh, WDR75 / RFU, AHCTF1 / Fold change vs veh, AHCTF1 / RFU, TFRC / Fold change vs veh, TFRC / RFU, ZDHHC17 / Fold change vs veh, ZDHHC17 / RFU, NOM1 / Fold change vs veh, NOM1 / RFU, ARL8B / Fold change vs veh, ARL8B / RFU, ZBTB11 / Fold change vs veh, ZBTB11 / RFU, TAMM41 / Fold change vs veh, TAMM41 / RFU, KIAA1704 /// LOC100996395 / Fold change vs veh, KIAA1704 /// LOC100996395 / RFU, ING1 / Fold change vs veh, ING1 / RFU, TRMT61B / Fold change vs veh, TRMT61B / RFU, FUBP3 / Fold change vs veh, FUBP3 / RFU, TP53 / Fold change vs veh, TP53 / RFU, TNKS2 / Fold change vs veh, TNKS2 / RFU, ZFP14 / Fold change vs veh, ZFP14 / RFU, ACTR2 / Fold change vs veh, ACTR2 / RFU, PPP3R1 / Fold change vs veh, PPP3R1 / RFU, PIK3R1 / Fold change vs veh, PIK3R1 / RFU, HNRNPA1 / Fold change vs veh, HNRNPA1 / RFU, RNF170 / Fold change vs veh, RNF170 / RFU, ZNF28 / Fold change vs veh, ZNF28 / RFU, RNGTT / Fold change vs veh, RNGTT / RFU, OGT / Fold change vs veh, OGT / RFU, BRD1 / Fold change vs veh, BRD1 / RFU, MARS / Fold change vs veh, MARS / RFU, ZNF655 / Fold change vs veh, ZNF655 / RFU, FAHD1 / Fold change vs veh, FAHD1 / RFU, BDP1 / Fold change vs veh, BDP1 / RFU, LRRCC1 / Fold change vs veh, LRRCC1 / RFU, ARID1A / Fold change vs veh, ARID1A / RFU, ZNF146 / Fold change vs veh, ZNF146 / RFU, ZNF330 / Fold change vs veh, ZNF330 / RFU, GPN3 / Fold change vs veh, GPN3 / RFU, C9orf123 / Fold change vs veh, C9orf123 / RFU, N4BP2L2 / Fold change vs veh, N4BP2L2 / RFU, ARFIP1 / Fold change vs veh, ARFIP1 / RFU, FAM179B / Fold change vs veh, FAM179B / RFU, BCL10 / Fold change vs veh, BCL10 / RFU, UHRF1BP1L / Fold change vs veh, UHRF1BP1L / RFU, BET1 / Fold change vs veh, BET1 / RFU, CNOT2 / Fold change vs veh, CNOT2 / RFU, ZNF268 / Fold change vs veh, ZNF268 / Fold change vs veh, ZNF507 / RFU, DGCR2 / Fold change vs veh, DGCR2 / RFU, WDSUB1 / Fold change vs veh, WDSUB1 / Fold change vs veh, HSP90B1 /// MIR3652 / RFU, ADSS / Fold change vs veh, ADSS / RFU, GK / Fold change vs veh, GK / RFU, ZNF148 / Fold change vs veh, ZNF148 / RFU, TAF9 / Fold change vs veh, TAF9 / RFU, SLC1A5 / Fold change vs veh, SLC1A5 / RFU, SLMO2 / Fold change vs veh, SLMO2 / RFU, ABCC4 / Fold change vs veh, ABCC4 / RFU, LOC101060439 /// RAP1B / Fold change vs veh, LOC101060439 /// RAP1B / RFU, RFX7 / Fold change vs veh, RFX7 / RFU, GTPBP10 / Fold change vs veh, GTPBP10 / RFU, CNEP1R1 / Fold change vs veh, CNEP1R1 / RFU, BIVM-ERCC5 /// ERCC5 / Fold change vs veh, BIVM-ERCC5 /// ERCC5 / RFU, ILF3 / Fold change vs veh, ILF3 / RFU 11762660_at / Fold change /veh 11762660_at / RFU VCAN (11757783_s_at) / Fold change /veh VCAN (11757783_s_at) / RFU DDX43 (11728927_at) / Fold change /veh DDX43 (11728927_at) / RFU KRT8 (11758188_x_at) / Fold change /veh KRT8 (11758188_x_at) / RFU NKD1 (11759106_at) / Fold change /veh NKD1 (11759106_at) / RFU SRD5A1 (11742802_a_at) / Fold change /veh SRD5A1 (11742802_a_at) / RFU TPSAB1 /// TPSB2 (11721975_s_at) / Fold change /veh TPSAB1 /// TPSB2 (11721975_s_at) / RFU GSTM3 (11746129_a_at) / Fold change /veh GSTM3 (11746129_a_at) / RFU IL23R (11737362_x_at) / Fold change /veh IL23R (11737362_x_at) / RFU TMEM51 (11727254_a_at) / Fold change /veh TMEM51 (11727254_a_at) / RFU PIWIL2 (11732686_x_at) / Fold change /veh PIWIL2 (11732686_x_at) / RFU ORM1 (11744905_x_at) / Fold change /veh ORM1 (11744905_x_at) / RFU CCDC152 (11743942_at) / Fold change /veh CCDC152 (11743942_at) / RFU ECM1 (11717891_a_at) / Fold change /veh ECM1 (11717891_a_at) / RFU IL23R (11748794_a_at) / Fold change /veh IL23R (11748794_a_at) / RFU TNFAIP8L3 (11732012_x_at) / Fold change /veh TNFAIP8L3 (11732012_x_at) / RFU MBOAT4 (11741988_at) / Fold change /veh MBOAT4 (11741988_at) / RFU 11764193_at / Fold change /veh 11764193_at / RFU TMEM53 (11763286_at) / Fold change /veh TMEM53 (11763286_at) / RFU MAGEB2 (11727129_at) / Fold change /veh MAGEB2 (11727129_at) / RFU TMEM200A (11744735_a_at) / Fold change /veh TMEM200A (11744735_a_at) / RFU CCDC152 (11751479_a_at) / Fold change /veh CCDC152 (11751479_a_at) / RFU FAM211A (11726209_a_at) / Fold change /veh FAM211A (11726209_a_at) / RFU RGS16 (11746705_a_at) / Fold change /veh RGS16 (11746705_a_at) / RFU VCAN (11755009_s_at) / Fold change /veh VCAN (11755009_s_at) / RFU RHOB (11743442_s_at) / Fold change /veh RHOB (11743442_s_at) / RFU RGS16 (11720943_a_at) / Fold change /veh RGS16 (11720943_a_at) / RFU RGS16 (11720944_at) / Fold change /veh RGS16 (11720944_at) / RFU, VPS4B / Fold change vs veh, VPS4B / RFU, CREB1 / Fold change vs veh, CREB1 / RFU, DNAJC13 / Fold change vs veh, DNAJC13 / RFU, GNAQ / Fold change vs veh, GNAQ / RFU, CDK5R1 / Fold change vs veh, CDK5R1 / RFU, ZRANB3 / Fold change vs veh, ZRANB3 / RFU, CUL4A / Fold change vs veh, CUL4A / RFU, CCNY / Fold change vs veh, CCNY / RFU, UFL1 / Fold change vs veh, UFL1 / RFU, COG3 / Fold change vs veh, COG3 / RFU, DIAPH2 / Fold change vs veh, DIAPH2 / RFU, SKA2 / Fold change vs veh, SKA2 / RFU, AFF3 / Fold change vs veh, AFF3 / RFU, LMF1 / Fold change vs veh, LMF1 / RFU, IPO11 / Fold change vs veh, IPO11 / RFU, DFFB / Fold change vs veh, DFFB / RFU, FOXP1 / Fold change vs veh, FOXP1 / RFU, CARD8 / Fold change vs veh, CARD8 / RFU, STRN3 / Fold change vs veh, STRN3 / RFU, ADK / Fold change vs veh, ADK / RFU, RASSF2 / Fold change vs veh, RASSF2 / RFU, WIPF1 / Fold change vs veh, WIPF1 / RFU, LARP1B / Fold change vs veh, LARP1B / RFU, RASA1 / Fold change vs veh, RASA1 / RFU, RB1 / Fold change vs veh, RB1 / RFU, PPFIA1 / Fold change vs veh, PPFIA1 / RFU, MAT2A / Fold change vs veh, MAT2A / RFU, CCT5 / Fold change vs veh, CCT5 / RFU, WDR92 / Fold change vs veh, WDR92 / RFU, CUX1 / Fold change vs veh, CUX1 / RFU, TTC7A / Fold change vs veh, TTC7A / RFU, TMEM135 / Fold change vs veh, TMEM135 / RFU, DEPTOR / Fold change vs veh, DEPTOR / RFU, CPM / Fold change vs veh, CPM / RFU, DNAJB6 / Fold change vs veh, DNAJB6 / RFU, CACNA2D3 / Fold change vs veh, CACNA2D3 / RFU, DTX4 / Fold change vs veh, DTX4 / RFU, TFCP2 / Fold change vs veh, TFCP2 / RFU, GMCL1 /// GMCL1P1 / Fold change vs veh, GMCL1 /// GMCL1P1 / RFU, AEBP2 / Fold change vs veh, AEBP2 / RFU, SNHG1 /// SNORD22 /// SNORD25 /// SNORD26 /// SNORD27 /// SNORD28 /// SNORD29 /// SNORD31 / Fold change vs veh, SNHG1 /// SNORD22 /// SNORD25 /// SNORD26 /// SNORD27 /// SNORD28 /// SNORD29 /// SNORD31 / Fold change (Aza/veh), C12orf56 (ProbeSet 11735607_a_at) / Fold change (ACY-1035/veh), C12orf56 (ProbeSet 11735607_a_at) / Fold change (Aza/veh), FGFR1OP (ProbeSet 11751329_s_at) / Fold change (ACY-1035/veh), FGFR1OP (ProbeSet 11751329_s_at) / Fold change (Aza/veh), VPS36 (ProbeSet 11739960_a_at) / Fold change (ACY-1035/veh), VPS36 (ProbeSet 11739960_a_at) / RFU SYPL1 (11715823_x_at) / Fold change /veh SYPL1 (11715823_x_at) / RFU IGFBP7 (11715501_s_at) / Fold change /veh IGFBP7 (11715501_s_at) / RFU REEP3 (11722064_at) / Fold change /veh REEP3 (11722064_at) / RFU IGLL1 (11728026_x_at) / Fold change /veh IGLL1 (11728026_x_at): dose or concentration left out as unconfirmed
Conditions: MV-4-11 cells, 48 hours

## Nc1ccc(-c2cccs2)cc1NC(=O)c1ccc2c(c1)cc(C1CC1)n2CCN1CCOCC1 [ACY-1035]
  Fold change /veh SYPL1 (11715823_x_at): 0.54

Reference: PMC5218480 (PLoS ONE, 2017)
